Results on 19 molecules are retold here after patent publication US20230257372A1 (CHONG KUN DANG PHARMACEUTICAL CORP., priority 2020, published 2023).

Structures are written as SMILES. pIC50: −log10 of the molar value.

In one test the target is T1, human recombinant HDAC1 (Homo sapiens, UniProt Q13547).
T1 construct: purchased Enzo Life Science, Inc. BML-SE456
Description: HDAC1 enzyme activity inhibition (HDAC Fluorimetric Drug Discovery Kit). Format: biochemical. The settings on record: human recombinant HDAC1, Fluor de Lys substrate, 30° C. 60 minutes; read-out: HDAC1. In a few lines: (§1)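 Fluorimetric deacetylase read-out. 5-fold compound dilutions; […] enzyme, 10 μM substrate; 30° C, 60 min; developer 30 min.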

The target of a further test is T2, human recombinant HDAC6 (Homo sapiens, UniProt Q9UBN7).
T2 construct: purchased Calbiochem Inc. 382180
T2 sequence (Q9UBN7 1-1215): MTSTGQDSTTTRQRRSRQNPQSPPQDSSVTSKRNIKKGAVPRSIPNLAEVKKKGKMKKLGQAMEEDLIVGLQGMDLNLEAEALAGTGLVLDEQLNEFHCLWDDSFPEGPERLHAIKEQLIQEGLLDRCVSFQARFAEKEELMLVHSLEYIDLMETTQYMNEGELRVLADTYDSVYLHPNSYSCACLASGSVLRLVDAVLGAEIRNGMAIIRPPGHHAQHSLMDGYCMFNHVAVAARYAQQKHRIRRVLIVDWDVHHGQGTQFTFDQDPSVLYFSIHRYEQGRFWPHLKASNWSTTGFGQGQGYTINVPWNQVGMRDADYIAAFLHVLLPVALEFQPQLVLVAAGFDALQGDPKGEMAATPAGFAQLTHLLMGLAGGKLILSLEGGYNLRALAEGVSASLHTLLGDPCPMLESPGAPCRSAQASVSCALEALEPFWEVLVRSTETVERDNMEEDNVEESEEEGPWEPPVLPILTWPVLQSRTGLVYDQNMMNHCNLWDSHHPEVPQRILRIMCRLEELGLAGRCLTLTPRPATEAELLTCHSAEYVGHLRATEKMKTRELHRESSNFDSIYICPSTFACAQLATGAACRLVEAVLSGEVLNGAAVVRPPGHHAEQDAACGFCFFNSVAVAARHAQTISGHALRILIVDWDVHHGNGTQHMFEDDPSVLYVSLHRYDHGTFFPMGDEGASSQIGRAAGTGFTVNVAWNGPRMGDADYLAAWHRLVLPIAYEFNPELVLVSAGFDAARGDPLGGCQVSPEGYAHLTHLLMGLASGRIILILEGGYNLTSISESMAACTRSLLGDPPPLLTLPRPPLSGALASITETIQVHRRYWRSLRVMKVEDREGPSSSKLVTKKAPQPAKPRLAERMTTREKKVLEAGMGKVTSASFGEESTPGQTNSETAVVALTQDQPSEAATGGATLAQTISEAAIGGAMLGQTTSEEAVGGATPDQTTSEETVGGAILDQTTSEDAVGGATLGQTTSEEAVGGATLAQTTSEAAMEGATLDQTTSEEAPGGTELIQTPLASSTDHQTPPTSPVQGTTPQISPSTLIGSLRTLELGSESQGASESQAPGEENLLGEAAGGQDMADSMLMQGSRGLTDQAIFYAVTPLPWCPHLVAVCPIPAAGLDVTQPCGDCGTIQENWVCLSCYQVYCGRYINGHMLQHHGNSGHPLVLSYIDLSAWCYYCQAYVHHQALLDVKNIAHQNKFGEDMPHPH
Description: HDAC6 enzyme activity inhibition (HDAC Fluorimetric Drug Discovery Kit). Format: biochemical. The settings on record: for HDAC6 selectivity (fold): HDAC6 over HDAC1; for pIC50: human recombinant HDAC6, same protocol as HDAC1. In outline:
as §1

T1 sequence (Q13547 whole entry): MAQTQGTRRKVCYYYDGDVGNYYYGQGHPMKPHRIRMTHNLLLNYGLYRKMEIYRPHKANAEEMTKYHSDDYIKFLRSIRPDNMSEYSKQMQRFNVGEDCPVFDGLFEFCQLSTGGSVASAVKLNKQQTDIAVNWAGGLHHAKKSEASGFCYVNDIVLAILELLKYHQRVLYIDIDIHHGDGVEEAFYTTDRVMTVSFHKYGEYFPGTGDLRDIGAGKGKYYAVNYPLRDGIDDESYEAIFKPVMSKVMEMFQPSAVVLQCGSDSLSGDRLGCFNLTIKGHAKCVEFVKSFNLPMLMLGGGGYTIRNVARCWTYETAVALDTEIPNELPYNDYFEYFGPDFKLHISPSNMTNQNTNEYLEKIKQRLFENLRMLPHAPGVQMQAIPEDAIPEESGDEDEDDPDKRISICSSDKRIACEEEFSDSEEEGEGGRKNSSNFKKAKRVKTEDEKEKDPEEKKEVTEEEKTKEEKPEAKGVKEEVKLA

Regarding `FC1CN(Cc2ccc(-c3cn(Cc4ccc(-c5nnc(C(F)F)o5)cc4)nn3)cc2)C1` [Compound 4549, 2-(difluoromethyl)-5-(4-((4-(4-((3-fluoroazetidin-1-yl)methyl)phenyl)-1H-1,2,3-triazol-1-yl)methyl)phenyl)-1,3,4-oxadiazole], the pIC50 on human recombinant HDAC1 is below 4.30. Further, on human recombinant HDAC6, the “HDAC6 selectivity (fold)” value is on record as 1213 fold and the pIC50 is 7.39.

Regarding `FC(F)c1nnc(-c2ccc(Cn3cc(-c4ccc(CN5CCCC5)cc4)nn3)cc2)o1` [Compound 4550, 2-(difluoromethyl)-5-(4-((4-(4-(pyrrolidin-1-ylmethyl)phenyl)-1H-1,2,3-triazol-1-yl)methyl)phenyl)-1,3,4-oxadiazole], the pIC50 on human recombinant HDAC1 was below 4.30. Further, at human recombinant HDAC6, the “HDAC6 selectivity (fold)” value amounted to 2762 fold and the pIC50 is 7.74.

`FC(F)c1nnc(-c2ccc(Cn3cc(-c4ccc(CN5CC6(COC6)C5)cc4)nn3)cc2)o1` [Compound 4551, 6-(4-(1-(4-(5-(difluoromethyl)-1,3,4-oxadiazol-2-yl)benzyl)-1H-1,2,3-triazol-4-yl)benzyl)-2-oxa-6-azaspiro[3.3]heptane]: the pIC50 on human recombinant HDAC1 is below 4.30. Also, on human recombinant HDAC6, the “HDAC6 selectivity (fold)” value came out at 4761 fold and the pIC50 was 7.98.

For `CN1CCN(Cc2ccc(-c3cn(Cc4ccc(-c5nnc(C(F)F)o5)cc4)nn3)cc2)CC1` [Compound 4552, 2-(difluoromethyl)-5-(4-((4-(4-((4-methylpiperazin-1-yl)methyl)phenyl)-1H-1,2,3-triazol-1-yl)methyl)phenyl)-1,3,4-oxadiazole], the pIC50 at human recombinant HDAC1 is below 4.30. For the same molecule, at human recombinant HDAC6, the “HDAC6 selectivity (fold)” value is on record as 1184 fold and the pIC50 is 7.37.

As to `CCN1CCN(Cc2ccc(-c3cn(Cc4ccc(-c5nnc(C(F)F)o5)cc4)nn3)cc2)CC1` [Compound 4553, 2-(difluoromethyl)-5-(4-((4-(4-((4-ethylpiperazin-1-yl)methyl)phenyl)-1H-1,2,3-triazol-1-yl)methyl)phenyl)-1,3,4-oxadiazole], the pIC50 on human recombinant HDAC1 was below 4.30. For the same molecule, on human recombinant HDAC6, the “HDAC6 selectivity (fold)” value was determined as 986 fold and the pIC50 is 7.29.

As for `CN(C)C1CCN(Cc2ccc(-c3cn(Cc4ccc(-c5nnc(C(F)F)o5)cc4)nn3)cc2)CC1` [Compound 4554, 1-(4-(1-(4-(5-(difluoromethyl)-1,3,4-oxadiazol-2-yl)benzyl)-1H-1,2,3-triazol-4-yl)benzyl)-N,N-dimethylpiperidin-4-amine], the results for the pIC50 on human recombinant HDAC1 and at human recombinant HDAC6 were below 4.30 and 7.19, respectively. Moreover, the “HDAC6 selectivity (fold)” value on human recombinant HDAC6 is listed as 773 fold.

For `FC(F)c1nnc(-c2ccc(Cn3cc(-c4ccc(CNC5CCC5)cc4)nn3)cc2)o1` [Compound 4555, N-(4-(1-(4-(5-(difluoromethyl)-1,3,4-oxadiazol-2-yl)benzyl)-1H-1,2,3-triazol-4-yl)benzyl)cyclobutanamine], the pIC50 at human recombinant HDAC1 was below 4.30; on human recombinant HDAC6, 7.62. In addition, at human recombinant HDAC6, the “HDAC6 selectivity (fold)” value is listed as 2100 fold.

In the case of `FC(F)c1nnc(-c2ccc(Cn3cc(-c4ccc(CNC5COC5)cc4)nn3)cc2)o1` [Compound 4556, N-(4-(1-(4-(5-(difluoromethyl)-1,3,4-oxadiazol-2-yl)benzyl)-1H-1,2,3-triazol-4-yl)benzyl)oxetan-3-amine], the pIC50 on human recombinant HDAC1 is below 4.30. Also, on human recombinant HDAC6, the “HDAC6 selectivity (fold)” value is reported as 682 fold and the pIC50 is 7.13.

`CN1CC(NCc2ccc(-c3cn(Cc4ccc(-c5nnc(C(F)F)o5)cc4)nn3)cc2)C1` [Compound 4557, N-(4-(1-(4-(5-(difluoromethyl)-1,3,4-oxadiazol-2-yl)benzyl)-1H-1,2,3-triazol-4-yl)benzyl)-1-methylazetidin-3-amine]: the pIC50 on human recombinant HDAC1 was below 4.30. On human recombinant HDAC6, the “HDAC6 selectivity (fold)” value was found to be 801 fold and the pIC50 is 7.20.

Regarding `FC(F)c1nnc(-c2ccc(Cn3cc(-c4ccc(CN5CCC5)cc4)nn3)nc2)o1` [Compound 4558, 2-(6-((4-(4-(azetidin-1-ylmethyl)phenyl)-1H-1,2,3-triazol-1-yl)methyl)pyridin-3-yl)-5-(difluoromethyl)-1,3,4-oxadiazole], the pIC50 is below 4.30 on human recombinant HDAC1 and 8.07 on human recombinant HDAC6. Also, at human recombinant HDAC6, the “HDAC6 selectivity (fold)” value worked out at 5882 fold.

With `FC1CN(Cc2ccc(-c3cn(Cc4ccc(-c5nnc(C(F)F)o5)cn4)nn3)cc2)C1` [Compound 4559, 2-(difluoromethyl)-5-(6-((4-(4-((3-fluoroazetidin-1-yl)methyl)phenyl)-1H-1,2,3-triazol-1-yl)methyl)pyridin-3-yl)-1,3,4-oxadiazole], the pIC50 at human recombinant HDAC1 is below 4.30. In addition, at human recombinant HDAC6, the “HDAC6 selectivity (fold)” value was found to be 2347 fold and the pIC50 is 7.67.

In the case of `FC(F)c1nnc(-c2ccc(Cn3cc(-c4ccc(CN5CCCC5)cc4)nn3)nc2)o1` [Compound 4560, 2-(difluoromethyl)-5-(6-((4-(4-(pyrrolidin-1-ylmethyl)phenyl)-1H-1,2,3-triazol-1-yl)methyl)pyridin-3-yl)-1,3,4-oxadiazole], the pIC50 is below 4.30 on human recombinant HDAC1 and 7.97 on human recombinant HDAC6. The “HDAC6 selectivity (fold)” value on human recombinant HDAC6 is reported as 4672 fold.

For `FC(F)c1nnc(-c2ccc(Cn3cc(-c4ccc(CN5CC6(COC6)C5)cc4)nn3)nc2)o1` [Compound 4561, 6-(4-(1-((5-(5-(difluoromethyl)-1,3,4-oxadiazol-2-yl)pyridin-2-yl)methyl)-1H-1,2,3-triazol-4-yl)benzyl)-2-oxa-6-azaspiro[3.3]heptane], the pIC50 on human recombinant HDAC1 was below 4.30. At human recombinant HDAC6, the “HDAC6 selectivity (fold)” value is given as 3571 fold and the pIC50 is 7.85.

For `CN1CCN(Cc2ccc(-c3cn(Cc4ccc(-c5nnc(C(F)F)o5)cn4)nn3)cc2)CC1` [Compound 4562, 2-(difluoromethyl)-5-(6-((4-(4-((4-methylpiperazin-1-yl)methyl)phenyl)-1H-1,2,3-triazol-1-yl)methyl)pyridin-3-yl)-1,3,4-oxadiazole], the pIC50 was below 4.30 on human recombinant HDAC1 and 7.62 on human recombinant HDAC6. On human recombinant HDAC6, the “HDAC6 selectivity (fold)” value was determined as 2083 fold.

For `CCN1CCN(Cc2ccc(-c3cn(Cc4ccc(-c5nnc(C(F)F)o5)cn4)nn3)cc2)CC1` [Compound 4563, 2-(difluoromethyl)-5-(6-((4-(4-((4-ethylpiperazin-1-yl)methyl)phenyl)-1H-1,2,3-triazol-1-yl)methyl)pyridin-3-yl)-1,3,4-oxadiazole], the pIC50 on human recombinant HDAC1 is below 4.30. Moreover, at human recombinant HDAC6, the “HDAC6 selectivity (fold)” value stood at 2222 fold and the pIC50 was 7.65.

Consider `CN(C)C1CCN(Cc2ccc(-c3cn(Cc4ccc(-c5nnc(C(F)F)o5)cn4)nn3)cc2)CC1` [Compound 4564, 1-(4-(1-((5-(5-(difluoromethyl)-1,3,4-oxadiazol-2-yl)pyridin-2-yl)methyl)-1H-1,2,3-triazol-4-yl)benzyl)-N,N-dimethylpiperidin-4-amine], for which the pIC50 at human recombinant HDAC1 was below 4.30; at human recombinant HDAC6 it was 7.67. In addition, at human recombinant HDAC6, the “HDAC6 selectivity (fold)” value was determined as 2358 fold.

Regarding `FC(F)c1nnc(-c2ccc(Cn3cc(-c4ccc(CNC5CCC5)cc4)nn3)nc2)o1` [Compound 4565, N-(4-(1-((5-(5-(difluoromethyl)-1,3,4-oxadiazol-2-yl)pyridin-2-yl)methyl)-1H-1,2,3-triazol-4-yl)benzyl)cyclobutanamine], the pIC50 at human recombinant HDAC1 was below 4.30. Moreover, at human recombinant HDAC6, the “HDAC6 selectivity (fold)” value was determined as 6024 fold and the pIC50 is 8.08.

With `FC(F)c1nnc(-c2ccc(Cn3cc(-c4ccc(CNC5COC5)cc4)nn3)nc2)o1` [Compound 4566, N-(4-(1-((5-(5-(difluoromethyl)-1,3,4-oxadiazol-2-yl)pyridin-2-yl)methyl)-1H-1,2,3-triazol-4-yl)benzyl)oxetan-3-amine], the pIC50 at human recombinant HDAC1 is below 4.30. At human recombinant HDAC6, the “HDAC6 selectivity (fold)” value turned out to be 1256 fold and the pIC50 was 7.40.

Take `CN1CC(NCc2ccc(-c3cn(Cc4ccc(-c5nnc(C(F)F)o5)cn4)nn3)cc2)C1` [Compound 4567, N-(4-(1-((5-(5-(difluoromethyl)-1,3,4-oxadiazol-2-yl)pyridin-2-yl)methyl)-1H-1,2,3-triazol-4-yl)benzyl)-1-methylazetidin-3-amine]: the pIC50 on human recombinant HDAC1 is below 4.30; on human recombinant HDAC6, 7.43. Besides, the “HDAC6 selectivity (fold)” value on human recombinant HDAC6 was determined as 1333 fold.
